Reference: US6068976A, “Modulators of ob gene and screening methods therefor” (priority 1996, dated 2000)
Like-named read-outs stand apart in the source and are kept apart here. No end group written: not given here.

Key:
[1] = test system: PPAR nuclear hormone receptors; settings: cited from earlier work
ob gene [2] = test: In vivo ob mRNA levels in adipose tissue of treated rats (Northern/dot blot, actin-normalised); parameters: species or system rat
ob gene [3] = test: Ex vivo endogenous ob mRNA expression in rat primary adipocytes; type: cell-based; settings: for ob mRNA expression in primary rat adipocytes: 24 hr; for production of ob messenger RNA in rat primary adipocytes: insulin 100 nM or dexamethasone 33 nM
human ob promoter [4] = test: Human ob promoter-luciferase reporter in transfected 3T3-L1 cells
[5] = In vivo body weight, food intake and tissue weights in treated rats; settings: for Epidydimal fat pad weight / Liver weight / Body Mass: oral gavage; for Epidydimal fat pad weight: control 2.5 ± 0.3, * p < 0.05; for Liver weight: control 16.8 ± 1.3; for Body Mass: control 344 ± 22; for food consumption: 4 days, triamcinolone 20 or dexamethasone 3.7 μg/g body weight/day
human ob promoter [6] = test: Human ob promoter-luciferase reporter in transfected rat primary adipocytes
[7] = test system: 3T3-F442A and ob 17 cells; settings: cited from earlier work
[8] = Body weight and food intake of male mice injected with ethinylestradiol; type: in vivo, mouse; settings: 0.75 μg/g body weight, 7 day
[9] = cited from earlier work
cachexia = settings: cancer patients; cited from earlier work
[10] = in vivo; cited from earlier work
[11] = 4 days, triamcinolone 20 or dexamethasone 3.7 μg/g body weight/day
[12] = fenofibrate 0.5% w/w in food, 14 days
[13] = hydrocortisone 1, 10 or 100 μg/g body weight, s.c., once daily, 20 days
[14] = hydrocortisone 100 μg/g body weight, once daily, 20 days

Molecule: O=C(O)COc1cc(Cl)c(Cl)cc1Cl [2,4,5-trichlorophenoxyacetic acid]
- transcriptional activity of PPARs [1]: transcriptional activity of the PPARs can be induced

Molecule: CN(CCOc1ccc(CC2SC(=O)NC2=O)cc1)c1ccccn1 (centres unmarked) [BRL 49653, 5-[[4-[2-(methyl-2-pyridinylamino)ethoxy]phenyl]methyl]-2,4-thiazolidinedione]
- effect on ob mRNA expression, dose dependence (ob gene [2]; BRL 49653 0, 1, 2 or 5 mg/kg/day, 7 days): dose-dependent
- decrease of ob mRNA levels in epidydimal fat pads (ob gene [2]; BRL 49653 5 mg/kg/day, 7 days): 40%
- ob mRNA expression in primary rat adipocytes (ob gene [3]; 100 μM, three independent experiments): reduced ob mRNA expression significantly
- suppression of ob gene expression by PPARγ in primary adipocytes (ob gene [3]; primary adipocytes): amplifies the suppression of ob gene expression by PPARγ in primary adipocytes
- effect on pGL3-OB1 in addition to PPARγ (human ob promoter [4]; with PPARγ cotransfection): slight cumulative effect
- body or liver weight ([5]; 0, 1, 2, and 5 mg/kg/day over 7 days): no change in either body or liver weight
- ratio of adipose tissue/body weight after treatment ([5]; 5 mg/kg/day, 7 days, 0.75%±0.1 before, p<0.05): 1.2%±0.2
- food intake ([5]; 5, 10, 20 mg/kg/day over 7 days): significant dose dependent increase in food intake
- Epidydimal fat pad weight ([5]; BRL 49653 1 mg/kg/day, 7 days): 3.3 ± 0.2 g
- Liver weight ([5]; BRL 49653 1 mg/kg/day, 7 days): 17.9 ± 1.3 g
- Body Mass ([5]; BRL 49653 1 mg/kg/day, 7 days, mean ± SD): 355 ± 21 g
- Epidydimal fat pad weight ([5]; BRL 49653 2 mg/kg/day, 7 days): 3.8 ± 0.5 g
- Liver weight ([5]; BRL 49653 2 mg/kg/day, 7 days): 18.9 ± 0.6 g
- Body Mass ([5]; BRL 49653 2 mg/kg/day, 7 days): 361 ± 18 g
- Epidydimal fat pad weight ([5]; BRL 49653 5 mg/kg/day, 7 days): 4.0 ± 0.6 g
- Liver weight ([5]; BRL 49653 5 mg/kg/day, 7 days): 17.4 ± 1.8 g
- Body Mass ([5]; BRL 49653 5 mg/kg/day, 7 days): 338 ± 9 g
- epidydimal fat pad weight (trend) ([5]; BRL 49653 1, 2, 5 mg/kg/day, 7 days): dose-dependent increase in epidydimal fat pad weight
- food intake and body weight (summary statement) ([5]; rats): increasing food intake and body weight in rats
- food intake ([5]; relatively low doses (1, 2, 5 mg/kg/day), 7 days): food intake showed a tendency to decrease, although no statistical significance was obtained
- additional effect on ob promoter activity (human ob promoter [6]; 10 μM, with PPARγ cotransfection): no further effect
- activity at 10 µM (human ob promoter [6]; Homo sapiens, Adipocyte, read-out: ob promoter activity reduced to): 40%

Molecule: CC(C)(Oc1ccc(Cl)cc1)C(=O)O [Clofibric acid]
- transcriptional activity of PPARs [1]: stimulate transcriptional activity of the PPAR nuclear hormone receptors

Molecule: C[C@]12CC[C@H](O)CC1=CC[C@@H]1[C@@H]2CC[C@]2(C)C(=O)CC[C@@H]12 [DHEA, Dihydroepiandosterone]
- food intake ([5]; DHEA, short experiment, rats): significant decrease in food intake
- gain in body weight ([5]; DHEA, three day treatment, rats): capable of reducing the gain in body weight already after a three day treatment period

Molecule: CCc1ccc(CCOc2ccc(CC3SC(=O)NC3=O)cc2)nc1 (centres unmarked) [Pioglitazone, pioglitazone]
- inhibition at 10 µM (human ob promoter [6]; Homo sapiens, Adipocyte, read-out: decrease in pGL3-OB1 expression): ~30%
- inhibition at 10 µM (human ob promoter [6]; Homo sapiens, Adipocyte, read-out: inhibition of pGL3-OB1 expression): ~50%

Molecule: CC1=C(/C=C/C(C)=C/C=C/C(C)=C/C(=O)O)C(C)(C)CCC1 [Retinoic acid]
- adipogenesis [7]: inhibit adipogenesis

Molecule: C[C@@H]1C[C@H]2[C@@H]3CCC4=CC(=O)C=C[C@]4(C)[C@@]3(F)[C@@H](O)C[C@]2(C)[C@@]1(O)C(=O)CO [dexamethasone]
- ob mRNA levels (ob gene [2]; [11]): increase of ob mRNA levels
- increase of ob mRNA levels in rat adipose tissue (ob gene [2]; within 24 hr after a single injection of dexamethasone (3.7 μg/g)): 2.2 fold
- stimulation of ob gene expression, comparison with insulin (ob gene [3]; dexamethasone 33 nM vs insulin 100 nM, 48 hours): stronger stimulation of ob gene expression than insulin
- production of ob messenger RNA in rat primary adipocytes (ob gene [3]; 48 hours): stimulated production of the ob messenger RNA
- food consumption [5]: reduced food consumption

Molecule: CCCCC(CC)COC(=O)c1ccccc1C(=O)OCC(CC)CCCC (centres unmarked) [di-(2-ethylhexyl)-phtalate]
- transcriptional activity of PPARs [1]: transcriptional activity of the PPARs can be induced

Molecule: C#C[C@]1(O)CC[C@H]2[C@@H]3CCc4cc(O)ccc4[C@H]3CC[C@@]21C [ethinyl estradiol, ethinylestradiol]
- decrease in body weight ([8]; injected, sham +1.81±1.04%): 14.83±1.44%
- food intake ([8]; male mice): important reduction in food intake
- body weight effect under pair-feeding ([9]; ovariectomized rats, pair-fed): pair-feeding abolished the effects of estrogens on body weight
- body weight ([9]; ovariectomized rats, substitution therapy): marked effect on body weight in ovariectomized rats

Molecule: CC(C)(Oc1ccc(Cl)cc1)C(=O)OCCOC(=O)c1cccnc1 [etiofibrate]
- transcriptional activity of PPARs [1]: stimulate transcriptional activity of the PPAR nuclear hormone receptors

Molecule: CC(C)OC(=O)C(C)(C)Oc1ccc(C(=O)c2ccc(Cl)cc2)cc1 [fenofibrate]
- ob mRNA levels (ob gene [2]; [12]): did not result in a reduction of ob mRNA levels
- transcriptional activity of PPARs [1]: stimulate transcriptional activity of the PPAR nuclear hormone receptors
- body or adipose tissue weight [5, 12]: did not result in a change in body or adipose tissue weight
- liver weight after treatment ([5]; fenofibrate 0.5% w/w in food, 14 days, from 13.8±0.5): 19.7 ± 2.5 g

Molecule: CC(C)(Oc1ccc(C(=O)c2ccc(Cl)cc2)cc1)C(=O)O [fenofibric acid]
- ob mRNA expression in primary rat adipocytes (ob gene [3]; 250 μM): no effect of fenofibrate on ob mRNA levels was detected

Molecule: Cc1ccc(C)c(OCCCC(C)(C)C(=O)O)c1 [gemfibrozil]
- transcriptional activity of PPARs [1]: stimulate transcriptional activity of the PPAR nuclear hormone receptors

Molecule: C[C@]12CCC(=O)C=C1CC[C@@H]1[C@@H]2[C@@H](O)C[C@@]2(C)[C@H]1CC[C@]2(O)C(=O)CO [hydrocortisone]
- time of maximal ob mRNA effect (ob gene [2]; hydrocortisone 100 μg/g body weight/day): 2 days
- increase of ob mRNA levels (ob gene [2]; hydrocortisone 100 μg/g body weight/day, adipose tissue): more than 2 fold
- ob mRNA levels in adipose tissue (ob gene [2]; [13]): dose-dependent induction of ob mRNA levels in adipose tissue
- β-actin mRNA levels (ob gene [2]; hydrocortisone, entire treatment period): remained constant
- body weight at end of treatment ([5]; hydrocortisone 100 μg/g body weight, 20 days): slight decrease in body weight
- body weight gain [5, 14]: completely prevented this gain in body weight
- reduction of food consumption vs untreated animals [5, 14]: 10-15%
- body weight gain [5, 13]: dose-dependent reduction in body weight gain

Molecule: CC(=O)CCCCn1c(=O)c2c(ncn2C)n(C)c1=O [pentoxifylline]
- reduction of cachexia (cachexia): improve the conditions of some patients

Molecule: CC(COc1ccccc1)N(CCCl)Cc1ccccc1 (centres unmarked) [phenoxybenzamide]
- weight gain and fat accumulation [10]: prevents weight gain and fat accumulation

Molecule: N[C@@H](Cc1cc(I)c(Oc2cc(I)c(O)c(I)c2)c(I)c1)C(=O)O [thyroxine]
- body weight ([9]; rats, literature): decrease in body weight
- food intake ([9]; rats, literature): increase in food intake

Molecule: C[C@]12C=CC(=O)C=C1CC[C@H]1[C@@H]3C[C@@H](O)[C@](O)(C(=O)CO)[C@@]3(C)C[C@H](O)[C@@]12F [triamcinolone]
- ob mRNA levels (ob gene [2]; [11]): increase of ob mRNA levels
- food consumption [5]: reduced food consumption

Molecule: N-propyl-thiouracil
- body weight ([9]; rats, literature): significant increase in body weight
- food intake ([9]; rats, literature): ingest less food

Molecule: corticotropin-releasing hormone: corticotropin-releasing hormone (SEEPPISLDLTFHLLREVLEMARAEQLAQQAHSNRKLMEII; ends and bridges not checked; UniProt P06850 154-194, looked up)
- body weight ([9]; hypothalamic administration, fat rats): reduces body weight

Molecule: insulin: insulin (1 U; Actrapid HMge, Novo Nordisk)
- stimulatory effect of insulin on ob mRNA under clamp (ob gene [2]; hyper- or eu-glycemic clamps): maintained when plasma glucose levels were maintained at either high or low levels
- ob mRNA level, refeeding plus insulin (ob gene [2]; refeeding plus insulin after overnight fast): no additive effects on ob mRNA level
- increase in adipose tissue ob gene expression relative to fasted rats (ob gene [2]; single dose insulin (1 U), fasted rats, 4 hours): 50-60%
- increase in ob mRNA relative to actin controls (ob gene [2]; single subcutaneous injection 1 I.U. insulin, 4 hours post injection, fasted rats): approximately two-fold increase
- production of ob mRNA in primary rat adipocytes (ob gene [3]; 1 or 10 nM insulin, 10% FBS): stimulated the production of ob mRNA in a dose dependent manner
- production of ob messenger RNA in rat primary adipocytes (ob gene [3]; 48 hours): stimulated production of the ob messenger RNA
- ob promoter luciferase expression in response to insulin (human ob promoter [4]; pGL3-OB1 in 3T3-L1 cells, insulin, control plasmid unaffected): two-fold
- increase of the level of ob mRNA (pGL3B-OB1 luciferase vector) (human ob promoter [6]; 200 nM insulin, 10% FBS, primary adipocytes with pGL3B-OB1): 140%
